Measurements from US20090042912A1, “DIPHENYLIMIDAZOLYL COMPOUNDS AS INHIBITORS OF beta-SECRETASE” (Wyeth, priority 2004, published 2009).
Where two headings read alike, the source gives them in different places.

Columns and labels:
human BACE1 = human BACE1 (Homo sapiens, UniProt P56817); assay: Fluorescent kinetic assay, inhibition of BACE1 (WABC-6 peptide substrate); format: biochemical; settings: 10 nM enzyme, 25 μM substrate, pH 4.5, room temperature; read-out: IC50 (μM) BACE1.
Protocol: Evaluation of the Enzyme Activity of Test Compounds and the Inhibition of hBACE1, MuBACE1 and hBACE2 by Test Compounds
The concentration is determined by absorbance at 354 nm using an extinction coefficient ε of 18172 M^−1cm^−1, The substrate stock is stored in small aliquots at −80° C. [Substrate Stock]=ABS^354 nm*10^6/18172 ([…])
Dilution and mixing steps: total reaction volume: 100 μL • 1. 2× inhibitor dilutions in buffer A (66.7 mM Na-Acetate, pH 4.5, 0.0667% CHAPS) are prepared, • 2. 4× enzyme dilution in buffer A (66.7 mM Na-Acetate, pH 4.5, 0.0667% CHAPS) are prepared, • 3. 100 μM substrate dilution in 1× PBS is prepared, • 4. 50 μL 2× Inhibitor and 25 μL 100 μM substrate are added to each well of 96-well plate (from DYNEX Technologies, VWR #: 11311-046), the immediately 25 μL 4× enzyme are added to the inhibitor and substrate mixer, the fluorescence readings are initiated.
Readings at λex 320 nm and λem 420 nm are taken every 40-sec for 30 min at room temperature to determine the linear slope for substrate cleavage rate (vi).

human BACE2 = target: T1, human BACE2 (Homo sapiens, UniProt Q9Y5Z0); assay: Fluorescent kinetic assay for human recombinant BACE 2 (WABC-6 peptide substrate); format: biochemical; settings: for IC50: 1.5 nM enzyme, 25 μM substrate, pH 4.5, room temperature; for inhibition at 25 µM: read-out: BACE2. % inhibition
T1 sequence (Q9Y5Z0 63-518): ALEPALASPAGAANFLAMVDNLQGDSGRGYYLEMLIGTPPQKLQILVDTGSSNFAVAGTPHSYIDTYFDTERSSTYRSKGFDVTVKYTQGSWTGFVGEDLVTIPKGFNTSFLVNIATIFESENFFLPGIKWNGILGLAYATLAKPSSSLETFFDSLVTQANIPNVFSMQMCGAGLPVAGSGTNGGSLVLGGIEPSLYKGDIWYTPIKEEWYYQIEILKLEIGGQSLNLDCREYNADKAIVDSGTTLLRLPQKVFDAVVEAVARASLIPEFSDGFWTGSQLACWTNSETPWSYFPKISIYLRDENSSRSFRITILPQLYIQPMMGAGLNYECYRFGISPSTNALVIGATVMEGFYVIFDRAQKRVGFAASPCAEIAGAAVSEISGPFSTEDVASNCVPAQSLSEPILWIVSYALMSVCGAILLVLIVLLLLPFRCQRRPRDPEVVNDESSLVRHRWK
Protocol: Fluorescent Kinetic Assay for Human Recombinant BACE 2
This assay is used to provide kinetic and selectivity parameters for the analyses of the tested compounds.
Temperature: room temperature.
Dilution and Mixing Steps: Total Reaction Volume.: 100 μL • 1.
Readings at λex 320 nm, λem 420 nm are taken every 40-sec for 30 min at room temperature and to determine the linear slope for substrate cleavage rate (vi).

Sequence of human BACE1 (P56817 46-501): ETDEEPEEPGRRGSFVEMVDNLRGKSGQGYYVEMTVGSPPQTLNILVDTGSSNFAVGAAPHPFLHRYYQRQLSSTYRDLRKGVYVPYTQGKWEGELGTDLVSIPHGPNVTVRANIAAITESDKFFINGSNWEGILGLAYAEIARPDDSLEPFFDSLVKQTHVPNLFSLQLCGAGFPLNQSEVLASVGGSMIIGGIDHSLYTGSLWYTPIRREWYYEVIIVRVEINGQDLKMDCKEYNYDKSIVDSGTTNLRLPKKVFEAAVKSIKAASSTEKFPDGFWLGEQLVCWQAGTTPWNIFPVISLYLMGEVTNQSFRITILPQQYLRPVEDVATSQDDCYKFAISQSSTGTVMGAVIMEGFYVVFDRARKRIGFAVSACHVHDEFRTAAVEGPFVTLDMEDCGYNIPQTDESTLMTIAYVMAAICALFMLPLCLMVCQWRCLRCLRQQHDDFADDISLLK

| SMILES | IC50 (human BACE1) [µM] | IC50 (human BACE2) [µM] | melting point [°C] | inhibition at 25 µM (human BACE2; at 25 μM) [%] | inhibition at 15.5 µM (human BACE2; at 15.5 μM) [%] | inhibition at 25 µM (human BACE2) [%] |
| --- | --- | --- | --- | --- | --- | --- |
| NC1=NC(c2ccc(OC(F)F)cc2)(c2cccc(-c3cccnc3F)c2)C2=NCC3(CC3)CN12 (stereo not drawn) [Example 44, 8′-[4-(Difluoromethoxy)phenyl]-8′-[3-(2-fluoropyridin-3-yl)phenyl]-2′,8′-dihydrospiro[cyclopropane-1,3′-imidazo[1,5-a]pyrimidin]-6′-amine] | 0.02 | 2.26 | 98 to 108 | – | – | – |
| CCOc1ccc(C2(c3cccc(-c4cccnc4F)c3)N=C(N)N3CCCN=C32)cc1OCC (stereo not drawn) [Example 25] | 0.083 | 9.87 | 202 to 208 | – | – | – |
| COc1ccc(C2(c3ccc(F)c(-c4cncnc4)c3)N=C(N)N3CCCN=C32)cc1 (stereo not drawn) [Example 23, 8-(4-fluoro-3-pyrimidin-5-ylphenyl)-8-(4-methoxyphenyl)-2,3,4,8-tetrahydroimidazo[1,5-a]pyrimidin-6-amine] | 0.12 | – | 122 | 42 | – | – |
| NC1=NC(c2ccc(OC(F)(F)F)cc2)(c2cccc(-c3cncc(Cl)c3)c2)C2=NCCCN12 (stereo not drawn) [Example 20, 8-[3-(5-chloropyridin-3-yl)phenyl]-8-[4-(trifluoromethoxy)phenyl]-2,3,4,8-tetrahydroimidazo[1,5-a]pyrimidin-6-amine] | 0.04 | 0.54 | 112 to 116 | – | – | – |
| NC1=NC(c2ccc(OC(F)F)cc2)(c2cccc(-c3cccnc3F)c2)C2=NCCCN12 (stereo not drawn) [Example 41, 8-(4-Difluoromethoxyphenyl)-8-[3-(2-fluoropyridin-3-yl)phenyl]-2,3,4,8-tetrahydroimidazo[1,5-a]pyrimidin-6-ylamine] | 0.018 | 1.23 | 104 to 114 | – | – | – |
| NC1=NC(c2ccc(OC(F)(F)F)cc2)(c2cccc(-c3cncc(F)c3)c2)C2=NCCCN12 (stereo not drawn) [Example 19, 8-[3-(5-fluoropyridin-3-yl)phenyl]-8-[4-(trifluoromethoxy)phenyl]-2,3,4,8-tetrahydroimidazo[1,5-a]pyrimidin-6-amine] | 0.08 | 3.22 | 112 to 118 | – | – | – |
| NC1=NC(c2ccc(OC(F)F)cc2)(c2cccc(-c3cccnc3F)c2)C2=NCC3(CCC3)CN12 (stereo not drawn) [Example 47, 8′-[4-(difluoromethoxy)phenyl]-8′-[3-(2-fluoropyridin-3-yl)phenyl]-2′,8′-dihydrospiro[cyclobutane-1,3′-imidazo[1,5-a]pyrimidin]-6′-amine] | 0.01 | 1.15 | 220 to 226 | – | – | – |
| NC1=NC(c2ccc(OC(F)(F)F)cc2)(c2cccc(-c3cc(F)cnc3F)c2)C2=NCCCN12 (stereo not drawn) [Example 28] | 0.06 | 4.68 | 94 to 102 | – | – | – |
| NC1=NC(c2cccc(-c3cccnc3F)c2)(c2ccc3c(c2)OC(F)(F)O3)C2=NCCCN12 (stereo not drawn) [Example 43, 8-(2,2-Difluoro-benzo[1,3]dioxol-5-yl)-8-[3-(2-fluoro-pyridin-3-yl)-phenyl]-2,3,4,8-tetrahydro-imidazo[1,5-a]pyrimidin-6-ylamine] | 0.74 | – | 95 to 99 | 53 | – | – |
| COc1ccc(C2(c3cccc(-c4cccnc4F)c3)N=C(N)N3CCCN=C32)cc1 (stereo not drawn) [Example 21, 8-[3-(2-fluoropyridin-3-yl)phenyl]-8-(4-methoxyphenyl]-2,3,4,8-tetrahydroimidazo[1,5-a]pyrimidin-6-amine] | 0.09 | 6.57 | 117 to 121 | – | – | – |
| NC1=NC(c2ccc(OC(F)(F)F)cc2)(c2ccc(F)c(-c3cccnc3F)c2)C2=NCCCN12 (stereo not drawn) [Example 15, 8-[4-fluoro-3-(2-fluoropyridin-3-yl)phenyl]-8-[4-(trifluoromethoxy)phenyl]-2,3,4,8-tetrahydroimidazo[1,5-a]pyrimidin-6-amine] | 0.1 | – | 99 to 122 | 44 | – | – |
| COCOc1ccc(C2(c3cccc(-c4cccnc4F)c3)N=C(N)N3CCCN=C32)cc1 (stereo not drawn) [Example 38, 8-[3-(2-Fluoro-pyridin-3-yl)-phenyl]-8-(4-methoxymethoxy-phenyl)-2,3,4,8-tetrahydro-imidazo[1,5-a]pyrimidin-6-ylamine] | 0.093 | – | 95 to 105 | – | 47 | – |
| NC1=NC(c2ccc(OC(F)(F)F)cc2)(c2ccc(F)c(-c3cncc(F)c3)c2)C2=NCCCN12 (stereo not drawn) [Example 14, {8-[4-Fluoro-3-(5-fluoropyrimidin-3-yl)phenyl]-8-[4-(trifluoromethoxy)phenyl]-2,3,4,8-tetrahydroimidazo[1,5-a]pyrimidin-6-yl}amine] | 0.14 | – | 94 to 105 | – | – | 65 |
| NC1=NC(c2ccc(OC(F)(F)F)cc2)(c2ccc(F)c(-c3cncnc3)c2)C2=NCCCN12 (stereo not drawn) [Example 13, 8-{[(4-Fluoro-3-pyrimidin-5-yl)phenyl]-8-[4-(trifluoromethoxy)phenyl]-2,3,4,8-tetrahydroimidazo[1,5-a]pyrimidin-6-yl}amine] | 0.15 | – | 105 to 115 | 25 | – | – |
